Data on seven molecules can be found in ChEMBL document CHEMBL1201862, “PubChem BioAssay data set” (2004).

Activity calls are given as the source filed them. Bounds are passed on as bounds.

For one assay, the system named is CHO-K1. The experiment in a line: Counterscreen for antagonists of the orexin 1 receptor (OX1R; HCRTR1): Homogeneous time resolved fluorescence (HTRF)-based cell-based dose response assay to identify antagonists of the parental CHO-K1 cell line. [Related pubchem assays (depositor defined):AID434989, AID435008, AID463079, AID485270, AID492963, AID492964, AID492965, AID493232, AID504699, AID504701]. The note with it: Cricetulus griseus. It is filed as functional.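 Note: potency for inhibition of ATP-stimulated IP1 production as antagonists.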

Assay [1] addresses T1, Orexin receptor type 2 (Homo sapiens, UniProt O43614).
T1 sequence (O43614 whole entry): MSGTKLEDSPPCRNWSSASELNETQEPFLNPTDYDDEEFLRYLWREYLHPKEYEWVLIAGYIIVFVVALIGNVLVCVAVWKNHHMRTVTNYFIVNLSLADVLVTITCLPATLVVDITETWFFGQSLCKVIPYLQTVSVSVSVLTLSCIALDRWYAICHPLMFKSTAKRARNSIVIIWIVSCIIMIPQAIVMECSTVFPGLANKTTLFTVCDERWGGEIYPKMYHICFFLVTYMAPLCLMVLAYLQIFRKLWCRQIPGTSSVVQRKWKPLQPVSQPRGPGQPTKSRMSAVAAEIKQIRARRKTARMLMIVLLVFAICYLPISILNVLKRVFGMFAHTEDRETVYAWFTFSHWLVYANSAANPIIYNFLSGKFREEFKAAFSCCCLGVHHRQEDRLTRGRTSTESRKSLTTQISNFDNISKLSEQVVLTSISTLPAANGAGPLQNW
The assay can be described thus: Counterscreen assay for antagonists of the orexin 1 receptor (OX1R; HCRTR1): Homogeneous Time Resolved Fluorescence (HTRF)-based cell-based dose response assay for antagonists of the orexin 2 receptor (OX2R; HCRTR2), run by assay provider. It is filed as functional. In general terms: The purpose of a counterscreen is to sort out artefacts and off-target activity.

The target in assay [2] is T2, Orexin/Hypocretin receptor type 1 (Homo sapiens, UniProt O43613).
T2 sequence (O43613 whole entry): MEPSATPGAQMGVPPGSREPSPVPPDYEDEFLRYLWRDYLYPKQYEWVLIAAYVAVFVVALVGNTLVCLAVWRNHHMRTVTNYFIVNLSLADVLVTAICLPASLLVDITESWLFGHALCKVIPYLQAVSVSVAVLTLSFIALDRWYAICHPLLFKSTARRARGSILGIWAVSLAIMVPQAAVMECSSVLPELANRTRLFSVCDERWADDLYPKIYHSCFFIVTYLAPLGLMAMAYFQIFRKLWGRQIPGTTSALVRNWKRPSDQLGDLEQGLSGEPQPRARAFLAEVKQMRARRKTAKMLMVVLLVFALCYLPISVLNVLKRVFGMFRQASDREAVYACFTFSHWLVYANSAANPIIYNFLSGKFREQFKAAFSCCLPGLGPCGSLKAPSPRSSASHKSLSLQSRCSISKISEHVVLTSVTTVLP
The experiment in a line: Fluorescence-based cell-based high throughput dose response assay for antagonists of the orexin 1 receptor (OX1R; HCRTR1). [Related pubchem assays (depositor defined):AID434989, AID435008, AID463079, AID485270, AID492963, AID492964, AID492965, AID493232, AID504717, AID504718]. It is filed as functional.

Assay [3] concerns the target T2, Orexin/Hypocretin receptor type 1. The experiment in a line: Homogeneous Time Resolved Fluorescence (HTRF)-based cell-based high throughput dose response assay for antagonists of the orexin 1 receptor (OX1R; HCRTR1). [Related pubchem assays (depositor defined):AID434989, AID435008, AID463079, AID485270, AID492963, AID492964, AID492965, AID493232, AID504717, AID504718]. Type of assay: functional. (Time-resolved FRET reads energy transfer from a long-lived donor to a nearby acceptor.)

Assay [4] is described as follows: Counterscreen for antagonists of the orexin 1 receptor (OX1R; HCRTR1): Fluorescence-based cell-based high throughput dose response assay to identify antagonists of the parental CHO cell line. [Related pubchem assays (depositor defined):AID434989, AID435008, AID463079, AID485270, AID492963, AID492964, AID492965, AID493232, AID504699, AID504701]. It is filed as functional.

The target of assay [5] is T1, Orexin receptor type 2. The assay can be described thus: Counterscreen assay for antagonists of the orexin 1 receptor (OX1R; HCRTR1): Fluorescence-based cell-based dose response assay for antagonists of the orexin 2 receptor (OX2R; HCRTR2), run by assay provider. Type of assay: functional.
The nature of assay [6]: viability of HCT116 lacking mutant beta-catenin – cell-based, human colon tumor, dose response (AID 1045).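 Note: HCT116 colon tumor cells with beta catenin knocked out; cells exposed to compound for 60 hours.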 It is filed as functional.
The nature of assay [7]: viability of PTEN-deleted HCT116 cells – cell-based, HCT116 PTEN knockout, dose response (AID 1047).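 Note: HCT116 colon tumor cells with PTEN knocked out; cells exposed to compound for 60 hours before readout; potency for loss of cell viability measured by luminescence.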 It is filed as functional.
The target of assay [8] is T3, Sentrin-specific protease 6 (Homo sapiens, UniProt Q9GZR1).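 Note: Luminescence-based dose-response confirmatory assay of SENP6 inhibition, following up an ultra-high-throughput screen.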
T3 sequence (Q9GZR1 whole entry): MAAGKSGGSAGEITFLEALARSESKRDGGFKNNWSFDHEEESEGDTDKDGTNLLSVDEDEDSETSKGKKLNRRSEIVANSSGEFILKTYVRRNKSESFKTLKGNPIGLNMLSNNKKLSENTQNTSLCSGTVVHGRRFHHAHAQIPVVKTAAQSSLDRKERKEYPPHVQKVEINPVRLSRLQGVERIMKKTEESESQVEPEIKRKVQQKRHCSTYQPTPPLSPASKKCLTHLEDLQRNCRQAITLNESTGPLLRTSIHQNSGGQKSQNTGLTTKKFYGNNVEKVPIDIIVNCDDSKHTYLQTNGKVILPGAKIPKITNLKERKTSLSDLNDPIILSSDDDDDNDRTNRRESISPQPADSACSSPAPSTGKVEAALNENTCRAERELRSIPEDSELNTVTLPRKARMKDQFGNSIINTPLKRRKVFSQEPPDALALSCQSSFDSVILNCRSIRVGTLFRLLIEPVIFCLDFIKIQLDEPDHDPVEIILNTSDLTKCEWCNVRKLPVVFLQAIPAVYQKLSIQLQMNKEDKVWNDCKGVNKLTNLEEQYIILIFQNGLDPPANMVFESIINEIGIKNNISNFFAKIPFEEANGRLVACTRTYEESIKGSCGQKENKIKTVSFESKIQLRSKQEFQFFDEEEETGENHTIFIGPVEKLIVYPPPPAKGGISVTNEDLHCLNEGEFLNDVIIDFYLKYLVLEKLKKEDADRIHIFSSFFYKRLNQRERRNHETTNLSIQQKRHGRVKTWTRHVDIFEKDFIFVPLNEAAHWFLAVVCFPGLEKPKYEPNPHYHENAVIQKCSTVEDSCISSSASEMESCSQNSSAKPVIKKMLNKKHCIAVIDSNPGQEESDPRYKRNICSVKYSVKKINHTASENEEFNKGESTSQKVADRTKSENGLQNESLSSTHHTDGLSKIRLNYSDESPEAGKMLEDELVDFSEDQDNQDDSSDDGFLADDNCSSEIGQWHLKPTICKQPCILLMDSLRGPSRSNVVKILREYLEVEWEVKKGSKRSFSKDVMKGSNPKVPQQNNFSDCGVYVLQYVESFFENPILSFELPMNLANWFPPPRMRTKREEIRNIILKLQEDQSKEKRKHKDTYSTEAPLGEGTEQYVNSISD
Type of assay: functional.

The next assay has as its target T4, Caspase-3 (Homo sapiens, UniProt P42574).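 Note: Dose-response selectivity test against caspase-3 for candidate inhibitors of sentrin-specific proteases (SENPs).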
T4 sequence (P42574 whole entry): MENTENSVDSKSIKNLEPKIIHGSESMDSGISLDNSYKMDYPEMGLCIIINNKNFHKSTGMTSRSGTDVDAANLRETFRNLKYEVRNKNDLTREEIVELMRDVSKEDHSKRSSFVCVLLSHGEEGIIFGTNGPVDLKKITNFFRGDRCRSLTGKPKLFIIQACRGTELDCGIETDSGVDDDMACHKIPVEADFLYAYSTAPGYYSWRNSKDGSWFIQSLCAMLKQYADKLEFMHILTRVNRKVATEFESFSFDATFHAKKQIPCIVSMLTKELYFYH
Type of assay: functional.

For assay [9], the target named is T5, Sentrin-specific protease 8 (Homo sapiens, UniProt Q96LD8).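 Note: luminescence read-out of SENP8 inhibition, dose-response confirmation following an ultra-high-throughput screen.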
T5 sequence (Q96LD8 whole entry): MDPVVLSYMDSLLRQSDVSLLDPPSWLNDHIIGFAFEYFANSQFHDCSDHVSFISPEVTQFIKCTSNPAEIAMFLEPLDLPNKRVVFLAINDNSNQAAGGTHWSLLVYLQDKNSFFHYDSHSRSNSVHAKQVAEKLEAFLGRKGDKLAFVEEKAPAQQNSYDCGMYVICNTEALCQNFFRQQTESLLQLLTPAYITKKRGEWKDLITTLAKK
It is filed as functional.

The target in assay [10] is T6, Sentrin-specific protease 7 (Homo sapiens, UniProt Q9BQF6).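 Note: Luminescence-based dose-response confirmation of ultra-high-throughput screening hits, measuring inhibition of SENP7.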
T6 sequence (Q9BQF6 whole entry): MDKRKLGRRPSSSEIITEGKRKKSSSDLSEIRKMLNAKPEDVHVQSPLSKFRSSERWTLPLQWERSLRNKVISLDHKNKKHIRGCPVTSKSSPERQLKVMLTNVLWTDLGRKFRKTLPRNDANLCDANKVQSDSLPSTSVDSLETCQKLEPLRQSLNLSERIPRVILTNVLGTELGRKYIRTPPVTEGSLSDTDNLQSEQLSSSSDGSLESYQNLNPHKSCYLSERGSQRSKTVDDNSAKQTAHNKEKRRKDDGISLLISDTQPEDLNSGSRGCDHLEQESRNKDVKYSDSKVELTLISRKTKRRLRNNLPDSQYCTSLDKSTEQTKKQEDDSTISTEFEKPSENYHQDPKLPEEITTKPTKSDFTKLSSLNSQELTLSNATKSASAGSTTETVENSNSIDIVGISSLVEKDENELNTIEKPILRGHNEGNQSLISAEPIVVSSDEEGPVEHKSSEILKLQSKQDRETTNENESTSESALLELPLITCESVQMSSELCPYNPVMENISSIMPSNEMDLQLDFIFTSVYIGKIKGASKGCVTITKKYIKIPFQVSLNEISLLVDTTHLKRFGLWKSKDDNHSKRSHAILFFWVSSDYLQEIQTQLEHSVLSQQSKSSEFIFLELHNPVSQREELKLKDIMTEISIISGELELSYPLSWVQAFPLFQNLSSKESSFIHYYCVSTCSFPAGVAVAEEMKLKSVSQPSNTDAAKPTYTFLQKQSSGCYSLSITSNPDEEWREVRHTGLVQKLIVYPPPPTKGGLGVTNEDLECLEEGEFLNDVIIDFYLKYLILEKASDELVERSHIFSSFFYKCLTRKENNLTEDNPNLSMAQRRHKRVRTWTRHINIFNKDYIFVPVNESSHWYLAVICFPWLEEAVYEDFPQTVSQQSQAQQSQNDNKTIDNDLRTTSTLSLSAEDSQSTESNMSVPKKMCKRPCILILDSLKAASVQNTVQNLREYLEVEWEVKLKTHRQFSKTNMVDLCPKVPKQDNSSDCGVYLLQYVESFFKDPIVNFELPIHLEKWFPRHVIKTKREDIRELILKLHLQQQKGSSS
Type of assay: functional.

Assay [11] deals with Luciferin 4-monooxygenase (Photinus pyralis, UniProt P08659). The experiment in a line: inhibition of purified Photinus pyralis luciferase – biochemical, luminescence, dose response (AID 1891).
The nature of assay [12]: Luminescence Cell-Based Dose Confirmation HTS to Identify Inhibitors of Platelet Dense Granule Release. [Related pubchem assays: 1663 (Primary HTS), 1678 (Summary of Project)]. Type of assay: functional.

Chain of Luciferin 4-monooxygenase (P08659 whole entry): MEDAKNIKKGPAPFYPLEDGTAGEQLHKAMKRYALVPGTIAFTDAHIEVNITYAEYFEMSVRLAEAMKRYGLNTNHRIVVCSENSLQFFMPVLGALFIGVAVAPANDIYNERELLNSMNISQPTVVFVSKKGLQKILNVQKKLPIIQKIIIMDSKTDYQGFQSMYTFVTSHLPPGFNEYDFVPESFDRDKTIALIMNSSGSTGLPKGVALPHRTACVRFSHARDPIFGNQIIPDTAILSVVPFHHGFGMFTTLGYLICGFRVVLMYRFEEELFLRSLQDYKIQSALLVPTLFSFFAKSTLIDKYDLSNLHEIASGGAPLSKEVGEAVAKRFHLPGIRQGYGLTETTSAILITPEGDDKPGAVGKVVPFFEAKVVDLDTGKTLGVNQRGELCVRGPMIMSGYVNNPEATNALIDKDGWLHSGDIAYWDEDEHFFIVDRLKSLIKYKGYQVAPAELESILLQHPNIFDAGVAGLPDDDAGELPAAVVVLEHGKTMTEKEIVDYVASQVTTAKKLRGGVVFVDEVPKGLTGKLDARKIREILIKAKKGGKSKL

The IC50 is the concentration that gives 50% inhibition. Turning to `CCn1c2ccccc2c2nc3ccccc3nc21`, the IC50 with CHO-K1 was > 66.3 µM (inactive); at Orexin receptor type 2 [1], 6.65 µM (active); in [2], 6.2 µM (active); in assay [3], 0.914 µM (active); in [4], > 49.8 µM (inactive); at Orexin receptor type 2 [5], 35.2 µM (inactive).
The term EC50 denotes the concentration giving half of the maximal effect. For the molecule `CC(NS(=O)(=O)c1ccc(OCC(=O)Nc2cccc([N+](=O)[O-])c2)cc1)c1ccccc1` (stereo not given), the IC50 is > 66.2 µM (inactive) with CHO-K1; > 50 µM (inactive) on Orexin receptor type 2 [1]; 13.6 µM (inactive) in [2]; 0.688 µM (active) in [3]; > 49.8 µM (inactive) in [4]; > 88.8 µM (inactive) at Orexin receptor type 2 [5]. The EC50 is 18.2 µM (active) in assay [6] and 18.4 µM (active) in assay [7].
Consider `Cc1noc(C)c1S(=O)(=O)Nc1ccc(O)c2c(=O)cc(-c3ccccc3Cl)oc12`, for which the IC50 is > 66.2 µM (inactive) in the assay on CHO-K1; 5.63 µM (active) at Orexin receptor type 2 [1]; 23.6 µM (inactive) in [2]; 0.151 µM (active) in [3]; > 49.7 µM (inactive) in [4]; 16.8 µM (inactive) on Orexin receptor type 2 [5].
On to `O=C1/C(=C/c2ccc([N+](=O)[O-])cc2)CCc2ccccc21`, for which the IC50 in assay [8] was 0.789 µM (active); on Caspase-3 it was 5.9 µM (active); in assay [9], 1.13 µM (active); in assay [10], 0.696 µM (active). The EC50 was 0.404 µM (active) in [11] and 1.11 µM (active) in [12].
Consider `O=c1cc(-c2ccc(O)cc2)oc2ccc(O)cc12`, for which the IC50 in assay [8] was 87.7 µM (active); on Caspase-3, 16.8 µM (active); in assay [9] it was 11.6 µM (active); in [10], 9.8 µM (active).
Taken in the same sequence, the figures for `Cc1cc(-c2csc(Nc3ccccn3)n2)ccc1F` were 12.5 µM (active), 26 µM (active), 19.2 µM (active) and 3.53 µM (active).
Consider `CCN(C(=O)CO/N=C/c1ccc(OC)cc1OC)c1c(N)n(Cc2ccccc2)c(=O)[nH]c1=O`, for which the IC50 with CHO-K1 is > 66.2 µM (inactive); at Orexin receptor type 2 [1], 1.77 µM (active); in assay [2], 5.93 µM (active); in assay [3], 0.317 µM (active); in [4] it was > 49.7 µM (inactive); at Orexin receptor type 2 [5], 29 µM (inactive).
